Source: US20230203059A1, “MACROCYCLIC JAK INHIBITOR AND USES THEREOF” (Biopolar Hongye (Guangdong) Pharmaceutical Co. Ltd., priority 2020, published 2023)

What was measured:
Format in all cases: biochemical
JAK1 = JAK1 (Homo sapiens, UniProt P23458); experiment: JAK kinase activity, homogeneous time-resolved fluorescence (JAK1 reaction system); details: ATP 2 μM, JAK1 protein 0.2 ng/μL; read-out: JAK 1 activity
Method in brief: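 Kinase activity read as the 665 nm/615 nm time-resolved fluorescence ratio (320 nm excitation) after EDTA-containing antibody and XL-615 addition. Reaction ran 1 h at pH 7.0 (Hepes, MgCl2, DTT) with 0.2 ng/μL JAK1 and ATP at 2 μM. IC50 derived by Hill-slope fit.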

JAK2 = JAK2 (Homo sapiens, UniProt O60674); experiment: JAK kinase activity, homogeneous time-resolved fluorescence (JAK2 reaction system); details: ATP 2 μM, JAK2 protein 0.01 ng/μL
JAK2, sequence (O60674 whole entry): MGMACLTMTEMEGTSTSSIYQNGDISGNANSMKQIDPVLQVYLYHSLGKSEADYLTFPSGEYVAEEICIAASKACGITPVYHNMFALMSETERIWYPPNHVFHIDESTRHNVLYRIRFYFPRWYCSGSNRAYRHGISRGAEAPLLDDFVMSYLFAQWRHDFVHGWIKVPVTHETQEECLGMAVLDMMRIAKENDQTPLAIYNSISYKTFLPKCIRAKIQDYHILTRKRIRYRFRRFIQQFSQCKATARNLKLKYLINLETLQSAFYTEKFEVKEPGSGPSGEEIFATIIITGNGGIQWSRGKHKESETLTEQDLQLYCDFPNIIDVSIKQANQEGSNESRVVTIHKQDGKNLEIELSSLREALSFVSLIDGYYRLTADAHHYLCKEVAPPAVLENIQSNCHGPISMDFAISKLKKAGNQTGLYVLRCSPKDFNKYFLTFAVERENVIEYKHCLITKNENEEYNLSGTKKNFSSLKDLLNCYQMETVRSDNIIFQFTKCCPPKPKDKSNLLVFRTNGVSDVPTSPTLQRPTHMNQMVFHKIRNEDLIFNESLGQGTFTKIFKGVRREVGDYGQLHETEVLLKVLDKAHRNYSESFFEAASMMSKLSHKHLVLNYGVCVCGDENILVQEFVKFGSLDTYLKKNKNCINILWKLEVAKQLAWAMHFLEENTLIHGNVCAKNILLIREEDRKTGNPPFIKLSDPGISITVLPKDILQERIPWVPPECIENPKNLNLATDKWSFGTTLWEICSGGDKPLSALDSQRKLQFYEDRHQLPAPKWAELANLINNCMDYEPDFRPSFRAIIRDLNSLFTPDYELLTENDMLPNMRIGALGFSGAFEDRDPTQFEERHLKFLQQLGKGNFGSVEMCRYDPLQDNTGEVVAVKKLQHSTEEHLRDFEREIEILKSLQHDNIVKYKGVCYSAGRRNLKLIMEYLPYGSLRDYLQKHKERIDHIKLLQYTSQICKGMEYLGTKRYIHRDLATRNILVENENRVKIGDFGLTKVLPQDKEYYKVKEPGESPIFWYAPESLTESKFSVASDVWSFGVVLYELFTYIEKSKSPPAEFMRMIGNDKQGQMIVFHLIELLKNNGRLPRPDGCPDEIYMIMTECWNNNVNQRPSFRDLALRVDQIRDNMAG
Method in brief: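 IC50 derived by Hill-equation fit of the 665/615 nm time-resolved fluorescence ratio after EDTA-containing detection mix with anti-phosphosubstrate antibody. Preceding 1 h reaction contained 2 μM ATP, 0.01 ng/μL JAK2, substrate, 50 mM Hepes pH 7.0, 5 mM MgCl2, 1 mM DTT.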

JAK3 = target: T1, JAK3 (Homo sapiens, UniProt P52333); experiment: JAK kinase activity, homogeneous time-resolved fluorescence (JAK3 reaction system); details: ATP 2 μM, JAK3 protein 0.04 ng/μL; read-out: JAK 3 activity
T1 sequence (P52333 1-1124): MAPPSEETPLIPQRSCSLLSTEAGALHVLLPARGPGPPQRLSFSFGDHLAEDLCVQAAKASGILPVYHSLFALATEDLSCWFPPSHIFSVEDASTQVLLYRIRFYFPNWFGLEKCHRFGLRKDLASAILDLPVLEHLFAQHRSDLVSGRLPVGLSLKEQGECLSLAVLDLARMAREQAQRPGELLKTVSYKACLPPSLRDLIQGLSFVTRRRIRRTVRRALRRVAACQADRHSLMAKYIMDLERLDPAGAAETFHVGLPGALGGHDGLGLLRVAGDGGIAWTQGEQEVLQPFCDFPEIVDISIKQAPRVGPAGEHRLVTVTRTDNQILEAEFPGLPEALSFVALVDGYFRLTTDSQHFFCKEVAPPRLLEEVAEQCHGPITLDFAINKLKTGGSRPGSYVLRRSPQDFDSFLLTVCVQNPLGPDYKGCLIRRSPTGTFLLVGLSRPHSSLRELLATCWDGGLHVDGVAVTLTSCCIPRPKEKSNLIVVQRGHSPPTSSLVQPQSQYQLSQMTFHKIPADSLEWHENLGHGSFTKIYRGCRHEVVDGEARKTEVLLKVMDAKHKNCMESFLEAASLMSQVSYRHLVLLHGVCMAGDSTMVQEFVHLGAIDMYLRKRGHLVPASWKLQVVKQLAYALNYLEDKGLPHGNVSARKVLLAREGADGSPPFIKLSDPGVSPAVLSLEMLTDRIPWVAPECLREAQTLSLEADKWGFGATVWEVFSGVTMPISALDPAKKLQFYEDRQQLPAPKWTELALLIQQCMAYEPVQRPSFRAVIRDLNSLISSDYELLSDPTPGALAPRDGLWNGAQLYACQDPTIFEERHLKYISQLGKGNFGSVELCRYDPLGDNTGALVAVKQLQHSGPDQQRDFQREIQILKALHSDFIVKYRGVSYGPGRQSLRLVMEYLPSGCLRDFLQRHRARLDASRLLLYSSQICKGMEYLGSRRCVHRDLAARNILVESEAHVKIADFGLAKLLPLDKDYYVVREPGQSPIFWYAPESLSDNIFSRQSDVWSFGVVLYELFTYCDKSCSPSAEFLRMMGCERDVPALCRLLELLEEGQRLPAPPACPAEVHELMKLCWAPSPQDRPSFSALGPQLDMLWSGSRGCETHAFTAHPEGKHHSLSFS

TYK2 = TYK2 (Homo sapiens, UniProt P29597); experiment: JAK kinase activity, homogeneous time-resolved fluorescence (TYK2 reaction system); details: ATP 2 μM, TYK2 protein 0.2 ng/μL; read-out: TYK 2 activity
TYK2, sequence (P29597 whole entry): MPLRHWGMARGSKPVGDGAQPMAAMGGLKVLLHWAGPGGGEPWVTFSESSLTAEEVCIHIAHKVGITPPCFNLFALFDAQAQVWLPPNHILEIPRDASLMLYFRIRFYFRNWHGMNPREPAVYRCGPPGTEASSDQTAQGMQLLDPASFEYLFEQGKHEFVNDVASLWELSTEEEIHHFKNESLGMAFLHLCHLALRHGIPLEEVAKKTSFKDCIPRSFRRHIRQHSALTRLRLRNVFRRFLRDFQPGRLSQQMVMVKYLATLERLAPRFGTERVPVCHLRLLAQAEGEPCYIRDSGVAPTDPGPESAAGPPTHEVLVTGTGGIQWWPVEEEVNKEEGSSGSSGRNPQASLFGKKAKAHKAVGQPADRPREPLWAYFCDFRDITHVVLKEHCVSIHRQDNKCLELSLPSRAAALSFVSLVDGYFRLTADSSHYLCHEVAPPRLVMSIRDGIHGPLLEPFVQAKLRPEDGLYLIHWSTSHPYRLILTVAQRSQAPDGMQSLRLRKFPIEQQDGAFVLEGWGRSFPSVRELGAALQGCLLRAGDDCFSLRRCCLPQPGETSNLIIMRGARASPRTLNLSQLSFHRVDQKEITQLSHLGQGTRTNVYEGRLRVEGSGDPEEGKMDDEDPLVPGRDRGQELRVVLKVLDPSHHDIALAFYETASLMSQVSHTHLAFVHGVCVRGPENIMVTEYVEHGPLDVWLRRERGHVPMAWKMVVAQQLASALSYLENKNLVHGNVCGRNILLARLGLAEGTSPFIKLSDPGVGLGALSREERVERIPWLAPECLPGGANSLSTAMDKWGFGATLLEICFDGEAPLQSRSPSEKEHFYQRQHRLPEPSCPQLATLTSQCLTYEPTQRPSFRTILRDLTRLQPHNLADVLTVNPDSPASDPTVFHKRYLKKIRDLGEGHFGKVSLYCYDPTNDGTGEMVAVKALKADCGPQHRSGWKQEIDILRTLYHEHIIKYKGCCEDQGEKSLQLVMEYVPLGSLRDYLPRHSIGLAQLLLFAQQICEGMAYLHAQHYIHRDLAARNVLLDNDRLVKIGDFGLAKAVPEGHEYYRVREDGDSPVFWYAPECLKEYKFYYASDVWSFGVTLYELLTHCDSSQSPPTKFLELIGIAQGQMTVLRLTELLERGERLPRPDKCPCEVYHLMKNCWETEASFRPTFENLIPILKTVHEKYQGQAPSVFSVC
Method in brief: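 Activity read as the 665 nm/615 nm ratio after adding EDTA-containing detection mix with anti-phospho-substrate antibody and XL-615. Beforehand, 0.2 ng/μL TYK2, 2 μM ATP, substrate and compound reacted 1 h in pH 7.0 Hepes buffer with MgCl2 and DTT. IC50 fitted with Hill-slope equation.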

JAK1, sequence (P23458 whole entry): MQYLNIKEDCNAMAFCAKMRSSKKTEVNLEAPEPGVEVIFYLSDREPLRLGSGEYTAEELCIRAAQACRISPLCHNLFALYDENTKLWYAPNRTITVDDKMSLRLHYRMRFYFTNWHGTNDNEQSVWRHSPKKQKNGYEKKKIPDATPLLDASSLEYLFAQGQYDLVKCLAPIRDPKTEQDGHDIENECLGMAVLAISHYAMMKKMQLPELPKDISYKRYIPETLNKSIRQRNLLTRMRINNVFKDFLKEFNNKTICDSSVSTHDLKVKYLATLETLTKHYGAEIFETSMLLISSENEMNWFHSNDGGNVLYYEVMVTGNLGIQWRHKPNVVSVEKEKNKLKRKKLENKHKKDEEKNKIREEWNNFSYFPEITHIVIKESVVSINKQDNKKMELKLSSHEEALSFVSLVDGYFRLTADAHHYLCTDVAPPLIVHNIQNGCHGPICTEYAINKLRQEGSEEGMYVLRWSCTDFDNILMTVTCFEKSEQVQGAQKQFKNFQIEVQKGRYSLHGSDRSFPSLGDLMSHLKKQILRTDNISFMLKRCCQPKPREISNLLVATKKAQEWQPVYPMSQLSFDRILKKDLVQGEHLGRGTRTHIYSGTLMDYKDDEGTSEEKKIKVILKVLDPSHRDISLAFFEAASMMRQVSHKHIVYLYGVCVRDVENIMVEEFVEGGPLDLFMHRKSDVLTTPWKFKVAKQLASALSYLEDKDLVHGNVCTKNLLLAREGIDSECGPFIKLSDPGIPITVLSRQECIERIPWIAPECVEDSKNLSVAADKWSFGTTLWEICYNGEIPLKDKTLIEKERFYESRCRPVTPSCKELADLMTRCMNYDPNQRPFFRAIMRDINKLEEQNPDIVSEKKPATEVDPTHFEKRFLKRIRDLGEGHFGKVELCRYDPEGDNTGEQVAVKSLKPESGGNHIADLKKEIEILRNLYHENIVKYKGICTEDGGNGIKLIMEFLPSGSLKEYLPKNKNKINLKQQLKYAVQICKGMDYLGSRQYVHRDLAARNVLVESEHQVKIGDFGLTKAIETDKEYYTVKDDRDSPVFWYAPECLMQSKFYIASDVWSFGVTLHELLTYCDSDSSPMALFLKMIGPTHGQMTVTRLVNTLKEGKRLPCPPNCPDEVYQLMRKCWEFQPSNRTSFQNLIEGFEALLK

Row | Compound | IC50 (JAK1) [µM] | IC50 (JAK2) [µM] | IC50 (JAK3) [µM] | IC50 (TYK2) [µM]
1 | Nc1cc2ccc1-c1ccnc(n1)Nc1ccc(OCC3CC3)c(c1)COCCCCNC2=O [Example 112, 1^2-amino-4^4-(cyclopropylmethoxy)-6-oxa-3,11-diaza-2(4,2)-pyrimidi-na-1(1,4),4(1,3)-dibenzenacyclo-dodecaphan-12-one] | 1 to 10 | 0.101 to 1 | < 0.01 | > 10
2 | O=C1NCCCCOCc2cc(ccc2OCC2CCc3ccccc32)Nc2nccc(n2)-c2ccc1cc2[N+](=O)[O-] (stereo not shown) [Example 133, 4^4-((2,3-dihydro-1H-inden-1-yl)methoxy)-1^2-nitro-6-oxa-3,11-diaza-2(4,2)-pyrimidina-1(1,4),4(1,3)-dibenzenacyclododecaphan-12-one] | > 10 | > 10 | 1 to 10 | > 10
3 | O=C1NCCCCCOCc2cc(ccc2N2CCOCC2)Nc2nccc(n2)-c2ccc1cc2[N+](=O)[O-] [Example 49, 1^2-nitro-4^4-morpholin-6-oxa-3,12-di-aza-2(4,2)-pyrimidina-1(1,4),4(1,3)-dibenzenacyclotridecaphan-13-one] | 1 to 10 | 0.101 to 1 | 1 to 10 | 1 to 10
4 | CC1CCNC(=O)c2ccc(c([N+](=O)[O-])c2)-c2ccnc(n2)Nc2ccc(OC3CC3)c(c2)COC1 (stereo not shown) [Example 103] | > 10 | 1 to 10 | 0.101 to 1 | > 10
5 | O=C1NCCCCOCc2cccc(c2)Nc2nccc(n2)-c2ccc1cc2[N+](=O)[O-] [Example 53, 1^2-nitro-6-oxa-3,11-diaza-2(4,2)-py-rimidina-1(1,4),4(1,3)-dibenzenacyclo-dodecaphan-12-one] | 1 to 10 | > 10 | 1 to 10 | > 10
6 | Nc1cc2ccc1-c1ccnc(n1)Nc1ccc(OCc3ccccc3)c(c1)COCCCCNC2=O [Example 118, 1^2-amino-4^4-(benzyloxy)-6-oxa-3,11-diaza-2(4,2)-pyrimidina-1(1,4),4(1,3)-dibenzenacyclododecaphan-12-one] | 1 to 10 | 1 to 10 | 0.011 to 0.1 | > 10
7 | O=C1NCCCCOCc2cc(ccc2Cl)Nc2nccc(n2)-c2ccc1cc2F [Example 20, 4^4-chloro-1^2-fluoro-6-oxa-3,11-diaza-2(4,2)-pyrimidina-1(1,4),4(1,3)-di-benzenacyclododecaphan-12-one] | 0.101 to 1 | 0.101 to 1 | 0.011 to 0.1 | 1 to 10
8 | Cc1cc2ccc1-c1nc(ncc1C)Nc1cccc(c1)COCCCCNC2=O [Example 36, 1^2,2^5-dimethyl-6-oxa-3,11-diaza-2(4,2)-pyrimidina-1(1,4),4(1,3)-diben-zenacyclododecaphan-12-one] | > 10 | > 10 | 1 to 10 | > 10
9 | COc1cccc(F)c1COc1ccc2cc1COCC[C@@H](C)CNC(=O)c1ccc(c(N)c1)-c1ccnc(n1)N2 [Example 186, (R)-1^2-amino-4^4-((2-fluoro-6-meth-oxybenzyl)oxy)-9-methyl-6-oxa-3,11-diaza-2(4,2)-pyrimidina-1(1,4),4(1,3)-dibenzenacyclododecaphan-12-one] | 1 to 10 | 0.101 to 1 | < 0.01 | 1 to 10
10 | O=C1NCCCCOCc2cc(ccc2Oc2ccc(F)cc2)Nc2nccc(n2)-c2ccc1cc2[N+](=O)[O-] [Example 106, 4^4-(4-fluorophenoxy)-1^2-nitro-6-o-xa-3,11-diaza-2(4,2)-pyrimidina-1(1,4),4(1,3)-dibenzenacyclo-dodecaphan-12-one] | > 10 | 1 to 10 | 0.101 to 1 | > 10
11 | Nc1cc2ccc1-c1ccnc(n1)Nc1ccc(OCC3Cc4ccccc4O3)c(c1)COCCCCNC2=O (stereo not shown) [Example 155, 1^2-amino-4^4-((2,3-dihydroxybenzo-furan-2-yl)methoxy)-6-oxa-3,11-di-aza-2(4,2)-pyrimidina-1(1,4),4(1,3)-dibenzenacyclododecaphan-12-one] | 1 to 10 | 0.101 to 1 | 0.011 to 0.1 | 1 to 10
12 | Nc1cc2ccc1-c1ccnc(n1)Nc1ccc(OC3CC3)c(c1)COc1ccc(cc1)NC2=O [Example 200, 1^2-amino-4^4-cyclopropoxy-6-oxa-3,8-diaza-2(4,2)-pyrimidina-1,7(1,4),4(1,3)-tribenzenacyclononanphane-9-one] | 1 to 10 | 0.101 to 1 | 0.011 to 0.1 | > 10
13 | O=C1NCCCCOCc2cc(ccc2OC2CCCOC2)Nc2nccc(n2)-c2ccc1cc2[N+](=O)[O-] (stereo not shown) [Example 113, 1^2-nitro-4^4-((tetrahydro-2H-pyran-3-yl)oxy)-6-oxa-3,11-diaza-2(4,2)-pyrimidina-1(1,4),4(1,3)-dibenzena-cyclododecaphan-12-one] | 1 to 10 | 1 to 10 | 0.101 to 1 | > 10
14 | CC1CCNC(=O)c2ccc(c([N+](=O)[O-])c2)-c2ccnc(n2)Nc2ccc(OCC3CCC3)c(c2)COC1 (stereo not shown) [Example 141, 4^4-(cyclobutylmethoxy)-8-methyl-1^2-nitro-6-oxa-3,11-diaza-2(4,2)-pyrimidina-1(1,4),4(1,3)-dibenzena-cyclododecaphan-12-one] | > 10 | > 10 | 1 to 10 | > 10
15 | CC1CCNC(=O)c2ccc(c(N)c2)-c2ccnc(n2)Nc2ccc(OCC3CCCC3)c(c2)COC1 (stereo not shown) [Example 131, 1^2-amino-4^4-(cyclopentylmethoxy)-8-methyl-6-oxa-3,11-diaza-2(4,2)-pyrimidina-1(1,4),4(1,3)-dibenzena-cyclododecaphan-12-one] | 1 to 10 | 0.101 to 1 | 0.011 to 0.1 | > 10
16 | CC1CCOCc2cc(ccc2OC(C)C)Nc2nccc(n2)-c2ccc(cc2N)C(=O)NC1 (stereo not shown) [Example 178, 1^2-amino-4^4-isopropoxy-9-methyl-6-oxa-3,11-diaza-2(4,2)-pyrimidin-a-1(1,4)4(1,3)-dibenzenacyclododeca-phan-12-one] | 0.101 to 1 | 0.011 to 0.1 | < 0.01 | 0.101 to 1
17 | O=C1NCCCCOCc2cc(ccc2OC2CCC2)Nc2nccc(n2)-c2ccc1cc2[N+](=O)[O-] [Example 71, 4^4-cyclobutoxy-1^2-nitro-6-oxa-3,11-diaza-2(4,2)-pyrimidina-1(1,4),4(1,3)-dibenzenacyclododecaphan-12-one] | > 10 | > 10 | 1 to 10 | > 10
18 | CC1CCOCc2cc(ccc2OC2CCCC2)Nc2nccc(n2)-c2ccc(cc2N)C(=O)NC1 (stereo not shown) [Example 184, 1^2-amino-4^4-(cyclopentoxy)-9-meth-yl-6-oxa-3,11-diaza-2(4,2)-pyrimi-dina-1(1,4),4(1,3)-dibenzenacyclo-dodecaphan-12-one] | 1 to 10 | 0.101 to 1 | < 0.01 | 1 to 10
19 | Nc1cc2ccc1-c1ccnc(n1)Nc1ccc(OCC3CCCOC3)c(c1)COc1ccc(cc1)NC2=O (stereo not shown) [Example 213, 1^2-amino-4^4-((tetrahydro-2H-pyran-3-yl)methoxy)-6-oxa-3,8-diaza-2(4,2)-pyrimidina-1,7(1,4),4(1,3)-tri-benzenacyclononaphane-9-one] | 1 to 10 | 1 to 10 | 0.011 to 0.1 | > 10
